As usually defined, the IC50 is the concentration that inhibits the measured activity by half.

Structures are written as SMILES.

Results on 12 compounds are retold here after patent publication US8623857B2, “N-phenyl imidazole carboxamide inhibitors of 3-phosphoinositide-dependent protein kinase-1” (Merck Sharp & Dohme Corp., priority 2010, dated 2014).

For this test, the target named is T1, recombinant human PDK1 (Homo sapiens, UniProt O15530).
T1 construct: containing amino acids 51-556 of the human PDK1 enzyme; made in house; host or cells: Sf9 insect cells
T1 sequence (O15530 51-556): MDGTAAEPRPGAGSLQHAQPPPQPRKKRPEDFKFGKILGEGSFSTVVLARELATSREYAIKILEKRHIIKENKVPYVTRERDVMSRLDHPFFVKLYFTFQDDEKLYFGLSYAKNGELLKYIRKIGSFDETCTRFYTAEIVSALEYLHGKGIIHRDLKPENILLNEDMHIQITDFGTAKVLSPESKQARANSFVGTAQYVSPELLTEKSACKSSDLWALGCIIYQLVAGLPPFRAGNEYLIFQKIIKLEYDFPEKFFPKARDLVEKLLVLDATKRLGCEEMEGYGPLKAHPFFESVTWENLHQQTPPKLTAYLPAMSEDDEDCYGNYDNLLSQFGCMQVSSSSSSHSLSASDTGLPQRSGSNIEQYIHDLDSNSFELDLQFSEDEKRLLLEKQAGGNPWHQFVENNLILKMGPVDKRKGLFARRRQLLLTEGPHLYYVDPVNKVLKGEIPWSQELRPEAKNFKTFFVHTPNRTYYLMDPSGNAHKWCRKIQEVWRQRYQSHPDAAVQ
As to the kind of experiment: PDK1 IMAP fluorescence polarization assay (inhibition of peptide substrate phosphorylation). It is filed as biochemical. The following applies: Table 6; 10 nM PDK1 enzyme, 100 nM peptide substrate, 100 nM PIFtide, 2.5 uM ATP, 1.5 hours. On the technique in general: In fluorescence polarisation assays a small probe gives low polarisation when free and higher when bound to something large.

With `CNC(=O)C1CCN(c2c(F)cccc2NC(=O)c2nc(-c3ccnc(C)c3)c[nH]2)CC1` [Compound 59, 1-[2-fluoro-6-[[[4-(2-methyl-4-pyridinyl)-1H-imidazol-2-yl]carbonyl]amino]phenyl]-N-methyl-4-piperidinecarboxamide], the IC50 lay in the range of 1000 to 5000 nM.
Turning to `CCNC(=O)C1CCN(c2c(F)cccc2NC(=O)c2nc(-c3ccnc(C)c3)c[nH]2)CC1` [Compound 60, N-ethyl-1-[2-fluoro-6-[[[4-(2-methyl-4-pyridinyl)-1H-imidazol-2-yl]carbonyl]amino]phenyl]-4-piperidinecarboxamide], the IC50 was in the range of 1000 to 5000 nM.
Regarding `Cc1cc(-c2c[nH]c(C(=O)Nc3cccc(F)c3N3CCC(C(=O)N(C)C)CC3)n2)ccn1` [Compound 61, 1-[2-fluoro-6-[[[4-(2-methyl-4-pyridinyl)-1H-imidazol-2-yl]carbonyl]amino]phenyl]-N,N-dimethyl-4-piperidinecarboxamide], the IC50 was 1000 to 5000 nM.
Then `Cc1cc(-c2c[nH]c(C(=O)Nc3cccc(F)c3N3CCC(C(=O)NCC(O)C(F)(F)F)CC3)n2)ccn1` (stereo not drawn) [Compound 62, 1-[2-fluoro-6-[[[4-(2-methyl-4-pyridinyl)-1H-imidazol-2-yl]carbonyl]amino]phenyl]-N-(3,3,3-trifluoro-2-hydroxypropyl)-4-piperidinecarboxamide], with 1000 to 5000 nM.
For the compound `NCC1CCN(c2c(F)cccc2NC(=O)c2nc(-c3cncnc3)c[nH]2)CC1` [Compound 63, N-[2-[4-(aminomethyl)-1-piperidinyl]-3-fluorophenyl]-4-(5-pyrimidinyl)-1H-imidazole-2-carboxamide], the IC50 is 1000 to 5000 nM.
With `Cc1cc(-c2c[nH]c(C(=O)Nc3cccc(F)c3N3CCC(C(=O)N4CC[C@H](F)C4)CC3)n2)ccn1` [Compound 64, N-[3-fluoro-2-[4-[(3(S)-fluoro-1-pyrrolidinyl)carbonyl]-1-piperidinyl]phenyl]-4-(2-methyl-4-pyridinyl)-1H-imidazole-2-carboxamide] the figure was 1000 to 5000 nM; with `Cc1cc(-c2c[nH]c(C(=O)Nc3cccc(F)c3N3CCC(C(=O)N[C@H](C)c4ccccc4)CC3)n2)ccn1` [Compound 65, 1-[2-fluoro-6-[[[4-(2-methyl-4-pyridinyl)-1H-imidazol-2-yl]carbonyl]amino]phenyl]-N-(1(R)-phenylethyl)-4-piperidinecarboxamide], 1000 to 5000 nM; with `Cc1cc(-c2c[nH]c(C(=O)Nc3cccc(F)c3N3CCC(C(=O)N4CCC4)CC3)n2)ccn1` [Compound 66, N-[2-[4-(1-azetidinylcarbonyl)-1-piperidinyl]-3-fluorophenyl]-4-(2-methyl-4-pyridinyl)-1H-imidazole-2-carboxamide], 1000 to 5000 nM.
With `Cc1cc(-c2c[nH]c(C(=O)Nc3cccc(F)c3N3CCC(C(C)(C)N)CC3)n2)ccn1` [Compound 67, N-[2-[4-(1-amino-1-methylethyl)-1-piperidinyl]-3-fluorophenyl]-4-(2-methyl-4-pyridinyl)-1H-imidazole-2-carboxamide] the figure was 51 to 250 nM.
Then `NCC1CCN(c2c(F)cccc2NC(=O)c2nc(-c3cc(C(N)=O)nc(O)n3)c[nH]2)CC1` [Compound 68, 6-[2-[[[2-[4-(aminomethyl)-1-piperidinyl]-3-fluorophenyl]amino]carbonyl]-1H-imidazol-4-yl]-2-hydroxy-4-pyrimidinecarboxamide], with 1 to 50 nM.
For `NCC1CCN(c2c(F)cccc2NC(=O)c2nc(-c3cc(NCc4ccccc4)nc(N)n3)c[nH]2)CC1` [Compound 69, N-[2-[4-(aminomethyl)-1-piperidinyl]-3-fluorophenyl]-4-[2-amino-6-[(phenylmethyl)amino]-4-pyrimidinyl]-1H-imidazole-2-carboxamide], the IC50 was in the range of 1 to 50 nM.
Then `NCC1CCN(c2c(F)cccc2NC(=O)c2nc(-c3cc(NCc4ccc(C(F)(F)F)cc4)nc(N)n3)c[nH]2)CC1` [Compound 70, N-[2-[4-(aminomethyl)-1-piperidinyl]-3-fluorophenyl]-4-[2-amino-6-[[[4-(trifluoromethyl)phenyl]methyl]amino]-4-pyrimidinyl]-1H-imidazole-2-carboxamide], with 51 to 250 nM.
